Measurements reported in ChEMBL document CHEMBL1152676, “Combretastatin-like chalcones as inhibitors of microtubule polymerization. Part 1: synthesis and biological evaluation of antivascular activity” (Bioorg Med Chem, 2009).

Key:
K562 [1] = assay: Antiproliferative activity against human K562 cells after 5 days by MTT assay; format: functional, cell-based
[2] = Inhibition of tubulin assembly by Woods method
K562 [3] = assay: Cell cycle arrest in human K562 cells assessed as accumulation at G0/G1 phase at 20 nM after 24 hrs by propidium iodide staining-based flow cytometry; format: functional
K562 [4] = assay: Cell cycle arrest in human K562 cells assessed as accumulation at G2/M phase at 20 nM after 24 hrs by propidium iodide staining-based flow cytometry; format: functional
K562 [5] = assay: Cell cycle arrest in human K562 cells assessed as accumulation at S phase at 20 nM after 24 hrs by propidium iodide staining-based flow cytometry; format: functional

## COc1cc(/C=C/C(=O)c2cc(OC)c(OC)c(OC)c2)cc(OC)c1OC
K562 [1]; Homo sapiens, K562, 120 h
  IC50: 1.5 µM

## O=C(/C=C/c1ccccc1)c1ccccc1 [CHALCONE]
K562 [1]; Homo sapiens, K562, 120 h
  IC50: 3.8 µM

## COc1ccc(CCC(O)c2cc(OC)c(OC)c(OC)c2)cc1 (stereo unspecified)
K562 [1]; Homo sapiens, K562, 120 h
  IC50: 4 µM

## COc1ccc(/C=C/C(=O)c2cc(OC)c(OC)c(OC)c2)cc1F
K562 [1]; Homo sapiens, K562, 120 h
  IC50: 0.3 µM
[2]
  IC50: 1.2 µM
K562 [3]
  Activity: 9%
K562 [4]
  Activity: 72%
K562 [5]
  Activity: 19%

## COc1ccc(CCC(O)c2cc(OC)c(OC)c(OC)c2)cc1O (stereo unspecified)
K562 [1]; Homo sapiens, K562, 120 h
  IC50: 1 µM

## COc1ccc(/C=C/C(=O)c2ccc3c(c2)OCO3)cc1OC
K562 [1]; Homo sapiens, K562, 120 h
  IC50: 7.1 µM

## COc1ccc(OC)c(/C=C/C(=O)c2ccc3c(c2)OCO3)c1
K562 [1]; Homo sapiens, K562, 120 h
  IC50: 6.4 µM

## COc1ccc(/C=C/C(=O)c2cc(OC)c(OC)c(OC)c2)cc1[N+](=O)[O-]
K562 [1]; Homo sapiens, K562, 120 h
  IC50: 4 µM

## COc1ccc(C(=O)/C=C/c2cc(OC)c(OC)c(OC)c2)cc1OC
K562 [1]; Homo sapiens, K562, 120 h
  IC50: 1.1 µM

## COc1ccc(/C=C/C(=O)c2ccc(OC)c(OC)c2)cc1
K562 [1]; Homo sapiens, K562, 120 h
  IC50: 10 µM

## COc1ccc(/C=C/C(=O)c2ccc(O)cc2)cc1
K562 [1]; Homo sapiens, K562, 120 h
  IC50: 9.9 µM

## COc1ccc(/C=C/C(=O)c2ccc(OC)c(OC)c2OC)cc1F
K562 [1]; Homo sapiens, K562, 120 h
  IC50: 0.35 µM
[2]
  IC50: 7.9 µM
K562 [3]
  Activity: 37%
K562 [4]
  Activity: 49%
K562 [5]
  Activity: 14%

## CCCO/C(=C\c1cc(F)c(OC)c(F)c1)C(=O)c1cc(OC)c(OC)c(OC)c1
K562 [1]; Homo sapiens, K562, 120 h
  IC50: 0.22 µM

## COc1ccc(OC)c(C(=O)/C=C/c2ccc(N(C)C)cc2)c1
K562 [1]; Homo sapiens, K562, 120 h
  IC50: 0.04 µM

## COc1cc(OC)c(C=C(C)C(=O)c2cc(OC)c(OC)c(OC)c2)c(OC)c1
K562 [1]; Homo sapiens, K562, 120 h
  IC50: > 25 µM

## CCCO/C(=C\c1ccc(OC)c(F)c1)C(=O)c1cc(OC)c(OC)c(OC)c1
K562 [1]; Homo sapiens, K562, 120 h
  IC50: 0.02 µM

## COc1cc(/C=C(\C)C(=O)c2cc(OC)c(OC)c(OC)c2)cc(OC)c1OC
K562 [1]; Homo sapiens, K562, 120 h
  IC50: 2.5 µM

## COc1ccc(C(=O)[C@H]2O[C@@H]2c2ccc(C)cc2)cc1 (relative stereo)
K562 [1]; Homo sapiens, K562, 120 h
  IC50: > 30 µM

## O=C(/C=C/c1ccc2c(c1)OCO2)c1ccc(F)cc1
K562 [1]; Homo sapiens, K562, 120 h
  IC50: 5.1 µM

## COc1ccc(/C=C/C(=O)c2ccc(OC)c(OC)c2OC)cc1O
K562 [1]; Homo sapiens, K562, 120 h
  IC50: 0.01 µM
[2]
  IC50: 0.45 µM
K562 [3]
  Activity: 32%
K562 [4]
  Activity: 40%
K562 [5]
  Activity: 28%

## O=C(/C=C/c1ccc2c(c1)OCO2)c1ccc2c(c1)OCCO2
K562 [1]; Homo sapiens, K562, 120 h
  IC50: 8 µM

## COc1cc(/C=C/C(=O)c2ccc3c(c2)OCCO3)cc(OC)c1OC
K562 [1]; Homo sapiens, K562, 120 h
  IC50: 5.6 µM

## COc1ccc(/C=C/C(=O)c2cc(OC)c(OC)c(OC)c2)cc1
K562 [1]; Homo sapiens, K562, 120 h
  IC50: 0.3 µM

## COc1ccc(C(=O)[C@H]2O[C@@H]2c2ccc(OC)cc2)cc1 (racemic)
K562 [1]; Homo sapiens, K562, 120 h
  IC50: > 30 µM

## COc1ccc(CCC(=O)c2cc(OC)c(OC)c(OC)c2)cc1
K562 [1]; Homo sapiens, K562, 120 h
  IC50: 10 µM

## COc1ccc(CC(C)C(O)c2cc(OC)c(OC)c(OC)c2)cc1O (stereo unspecified)
K562 [1]; Homo sapiens, K562, 120 h
  IC50: 0.6 µM

## COc1ccc(/C=C/C(=O)c2ccc(C)cc2)cc1
K562 [1]; Homo sapiens, K562, 120 h
  IC50: 20 µM

## COc1ccc(C(=O)/C=C/c2cc(OC)ccc2OC)c(Cl)c1
K562 [1]; Homo sapiens, K562, 120 h
  IC50: 4 µM

## Cc1ccc(C(=O)[C@H]2O[C@@H]2c2ccc(C)cc2)cc1 (racemic)
K562 [1]; Homo sapiens, K562, 120 h
  IC50: 12 µM

## COc1ccc(C(=O)/C=C/c2ccc(OC)c(OP(=O)(O)O)c2)cc1
K562 [1]; k562
  IC50: 0.3 µM

## COc1ccc(C(=O)/C=C/c2ccc(OC)c(OC)c2)c(O)c1
K562 [1]; Homo sapiens, K562, 120 h
  IC50: 16 µM

## COc1ccc(C(=O)/C(C)=C/c2ccc(OC)c(OP(=O)(O)O)c2)cc1
K562 [1]; k562
  IC50: 0.5 µM

## COc1cc(/C=C/C(=O)c2ccc(F)cc2)cc(OC)c1OC
K562 [1]; Homo sapiens, K562, 120 h
  IC50: 1.6 µM

## CCC/C(=C\c1ccc(OC)c(O)c1)C(=O)c1cc(OC)c(OC)c(OC)c1
K562 [1]; Homo sapiens, K562, 120 h
  IC50: 0.0022 µM

## CCO/C(=C\c1cc(F)c(OC)c(F)c1)C(=O)c1cc(OC)c(OC)c(OC)c1
K562 [1]; Homo sapiens, K562, 120 h
  IC50: 0.23 µM

## COc1ccc(CCCc2cc(OC)c(OC)c(OC)c2)cc1
K562 [1]; Homo sapiens, K562, 120 h
  IC50: 0.5 µM

## COc1ccc(/C=C/C(O)c2cc(OC)c(OC)c(OC)c2)cc1O (stereo unspecified)
K562 [1]; Homo sapiens, K562, 120 h
  IC50: 0.5 µM

## COc1ccc(C(=O)/C=C/c2cc(F)c(OC)c(F)c2)c(OC)c1OC
K562 [1]; Homo sapiens, K562, 120 h
  IC50: 4.8 µM
[2]
  IC50: 31 µM
K562 [3]
  Activity: 51%
K562 [4]
  Activity: 46%
K562 [5]
  Activity: 3%

## COc1cc(/C=C/C(=O)c2ccc3c(c2)OCO3)cc(OC)c1OC
K562 [1]; Homo sapiens, K562, 120 h
  IC50: 2.9 µM

## O=C(/C=C/c1ccc(F)cc1)c1ccc(F)cc1
K562 [1]; Homo sapiens, K562, 120 h
  IC50: 4.9 µM

## COc1ccc(/C=C/C(O)c2cc(OC)c(OC)c(OC)c2)cc1 (stereo unspecified)
K562 [1]; Homo sapiens, K562, 120 h
  IC50: 4 µM

## COc1cc(C(=O)/C=C/c2ccc(OCc3ccccc3)cc2)cc(OC)c1OC
K562 [1]; Homo sapiens, K562, 120 h
  IC50: 9.9 µM

## COc1cc(C(=O)[C@H]2O[C@@H]2c2ccc(C)cc2)cc(OC)c1OC (racemic)
K562 [1]; Homo sapiens, K562, 120 h
  IC50: 3.4 µM

## COc1cc(/C=C/C(=O)c2ccccc2)cc(OC)c1OC
K562 [1]; Homo sapiens, K562, 120 h
  IC50: 1.6 µM

## CCO/C(=C\c1ccc(OC)c(O)c1)C(=O)c1cc(OC)c(OC)c(OC)c1
K562 [1]; Homo sapiens, K562, 120 h
  IC50: 0.0026 µM

## COc1ccc(C(=O)CCc2cc(OC)c(OC)c(OC)c2)cc1
K562 [1]; Homo sapiens, K562, 120 h
  IC50: 12 µM

## COc1ccc(CCC(=O)c2cc(OC)c(OC)c(OC)c2)cc1O
K562 [1]; Homo sapiens, K562, 120 h
  IC50: 1 µM

## COc1ccc(C(=O)/C=C/c2ccc(O)c(O)c2)c(OC)c1OC
K562 [1]; Homo sapiens, K562, 120 h
  IC50: 1.7 µM

## COc1ccc([C@H]2O[C@@H]2C(=O)c2ccc(C)cc2)cc1 (racemic)
K562 [1]; Homo sapiens, K562, 120 h
  IC50: 15 µM

## COc1ccc(/C=C(\C)C(=O)c2cc(OC)c(OC)c(OC)c2)cc1[N+](=O)[O-]
K562 [1]; Homo sapiens, K562, 120 h
  IC50: 0.06 µM
[2]
  IC50: > 10 µM
K562 [3]
  Activity: 36%
K562 [4]
  Activity: 28%
K562 [5]
  Activity: 36%

## COc1ccc(/C=C(\C)C(O)c2cc(OC)c(OC)c(OC)c2)cc1O (stereo unspecified)
K562 [1]; Homo sapiens, K562, 120 h
  IC50: 0.09 µM
[2]
  IC50: > 10 µM
K562 [3]
  Activity: 44%
K562 [4]
  Activity: 24%
K562 [5]
  Activity: 33%

## COc1ccc([C@H]2O[C@@H]2C(=O)c2cc(OC)c(OC)c(OC)c2)cc1 (racemic)
K562 [1]; Homo sapiens, K562, 120 h
  IC50: 4.9 µM

## COc1ccc(/C=C/C(=O)c2ccc(C)cc2)cc1O
K562 [1]; Homo sapiens, K562, 120 h
  IC50: 1.5 µM

## COc1ccc(/C=C/C(=O)c2ccc(OC)c(OC)c2)cc1OC
K562 [1]; Homo sapiens, K562, 120 h
  IC50: 2.2 µM

## COc1cc(C(=O)/C=C/c2ccc(F)cc2)cc(OC)c1OC
K562 [1]; Homo sapiens, K562, 120 h
  IC50: 1.5 µM

## COc1ccc(/C=C(\C)C(=O)c2ccc(OC)cc2)cc1
K562 [1]; Homo sapiens, K562, 120 h
  IC50: 1.9 µM

## COc1ccc(C(=O)[C@H]2O[C@@H]2c2ccc(OC)c(OC)c2)cc1 (racemic)
K562 [1]; Homo sapiens, K562, 120 h
  IC50: > 30 µM

## COc1ccc(/C=C/C(=O)c2ccc(OC)cc2OC)cc1 [METOCHALCONE]
K562 [1]; Homo sapiens, K562, 120 h
  IC50: 2.7 µM

## COc1ccc(C(=O)/C=C/c2cc(OC)c(OC)c(OC)c2)c(O)c1
K562 [1]; Homo sapiens, K562, 120 h
  IC50: 4.4 µM

## COc1cc(C(=O)/C=C/c2cc(OC)c(OC)c(OC)c2)ccc1O
K562 [1]; Homo sapiens, K562, 120 h
  IC50: 3.5 µM

## COc1cc(C(=O)/C=C/c2ccc(O)c(O)c2)cc(OC)c1OC
K562 [1]; Homo sapiens, K562, 120 h
  IC50: 1.2 µM

## COc1cc(C(=O)/C=C/c2ccc(Cl)cc2Cl)cc(OC)c1OC
K562 [1]; Homo sapiens, K562, 120 h
  IC50: 3.8 µM

## COc1ccc(C(=O)/C(C)=C/c2cc(OC)ccc2OC)cc1
K562 [1]; Homo sapiens, K562, 120 h
  IC50: 2.3 µM

## COc1cc(C(=O)[C@H]2O[C@@H]2c2cc(OC)c(OC)c(OC)c2)cc(OC)c1OC (relative stereo)
K562 [1]; Homo sapiens, K562, 120 h
  IC50: 3.7 µM

## COc1ccc(/C=C/C(=O)c2ccc(OC)cc2)cc1 [4,4'-DIMETHOXYCHALCONE]
K562 [1]; Homo sapiens, K562, 120 h
  IC50: 15 µM

## COc1cc(C(=O)/C=C/c2ccc(Cl)cc2)cc(OC)c1OC
K562 [1]; Homo sapiens, K562, 120 h
  IC50: 1.5 µM

## COc1ccc(C(=O)/C=C/c2ccc(Cl)cc2)c(O)c1
K562 [1]; Homo sapiens, K562, 120 h
  IC50: 9.7 µM

## COc1ccc(/C=C/C(=O)c2ccc(OC)c(OC)c2OC)cc1
K562 [1]; Homo sapiens, K562, 120 h
  IC50: 0.3 µM

## Cc1ccc(/C=C/C(=O)c2ccc(C)cc2)cc1 [4,4'-DIMETHYLCHALCONE]
K562 [1]; Homo sapiens, K562, 120 h
  IC50: 11 µM

## COc1ccc(OC)c(/C=C/C(=O)c2c(OC)cc(OC)cc2OC)c1
K562 [1]; Homo sapiens, K562, 120 h
  IC50: 7.2 µM

## COc1ccc(OC)c(C(=O)/C=C/c2ccc3c(c2)OCCO3)c1
K562 [1]; Homo sapiens, K562, 120 h
  IC50: 0.3 µM

## CCO/C(=C\c1ccc(OC)c(F)c1)C(=O)c1cc(OC)c(OC)c(OC)c1
K562 [1]; Homo sapiens, K562, 120 h
  IC50: 0.011 µM
